Among the data in patent US20130150325A1, “3-(Fluorovinyl)pyrazoles and their use” (BAYER INTELLECTUAL PROPERTY GMBH, priority 2011, published 2013) are IC50 values, retold here.

This experiment concerns HCT 116 cells transfected with a luciferase reporter under the control of an HIF-responsive sequence. Description: HIF-luciferase assay. In kind it is cell-based. Conditions: Homo sapiens; HCT 116 HIF-luciferase reporter cells, hypoxia chamber (1% O2), 24 h; in some cases means of up to four individual determinations. As to the method:
HCT 116 cells were transfected in a stable manner with a plasmid which contained a luciferase reporter under the control of an HIF-responsive sequence. These cells were sown in microtitre plates [20 000 cells/cavity in RPMI 1640 medium with 10% foetal calf serum (FCS) and 100 μg/ml of hygromycin]. Incubation was carried out overnight under standard conditions (5% CO2, 21% O2, 37° C., moistened). The following morning the cells were incubated with various concentrations of the test substances (0-10 μmol/l) in a hypoxia chamber (1% O2). After 24 h, Bright Glo reagent (Promega, Wisconsin, USA) was added in accordance with the manufacturer's instructions, and after 5 min the luminescence was measured. Cells which were incubated under normoxia served as background controls.
The IC50 values from this assay for representative working examples are listed in the following table (in same cases as means of up to four individual determinations): […]

In the case of `Cc1cc(/C(F)=C/c2ccc(C(C)(C)C(F)(F)F)cc2)nn1Cc1cccc(C(F)(F)CO)c1` [Example 62, 2,2-Difluoro-2-{3-[(3-{(Z)-1-fluoro-2-[4-(1,1,1-trifluoro-2-methylpropan-2-yl)phenyl]vinyl}-5-methyl-1H-pyrazol-1-yl)methyl]phenyl}ethanol], the IC50 worked out at 2.5 nM.

As to `Cc1cc(/C(F)=C/c2ccc(C3(C(F)(F)F)CC3)cc2)nn1Cc1cccc(C(F)(F)CO)c1` [Example 63, 2,2-Difluoro-2-[3-({3-[(Z)-1-fluoro-2-{4-[1-(trifluoromethyl)cyclopropyl]phenyl}vinyl]-5-methyl-1H-pyrazol-1-yl}methyl)phenyl]ethanol], the IC50 turned out to be 3 nM.

`Cc1cc(/C(F)=C/c2ccc(C(C)(C)C(F)(F)F)cc2)nn1Cc1cccc(CC(C)(C)O)c1` [Example 64, 1-{3-[(3-{(Z)-1-Fluoro-2-[4-(1,1,1-trifluoro-2-methylpropan-2-yl)phenyl]vinyl}-5-methyl-1H-pyrazol-1-yl)methyl]phenyl}-2-methylpropan-2-ol] showed an IC50 of 2 nM.

Molecule `CNc1ccc(Cn2nc(/C(F)=C/c3ccc(OC(F)(F)F)cc3)cc2C)cn1` [Example 79, 5-[(3-{(Z)-1-Fluoro-2-[4-(trifluoromethoxy)phenyl]vinyl}-5-methyl-1H-pyrazol-1-yl)methyl]-N-methylpyridine-2-amine] gave an IC50 of 1 nM.

In turn, `CNc1ccc(Cn2nc(/C(F)=C/c3ccc(OC(F)(F)F)c(F)c3)cc2C)cn1` [Example 80, 5-[(3-{(Z)-1-Fluoro-2-[3-fluoro-4-(trifluoromethoxy)phenyl]vinyl}-5-methyl-1H-pyrazol-1-yl)-methyl]-N-methylpyridine-2-amine] registered an IC50 of 2.8 nM.

`CNc1ccc(Cn2nc(/C(F)=C/c3ccc(OC(F)(F)F)c(Cl)c3)cc2C)cn1` [Example 81, 5-[(3-{(Z)-2-[3-Chloro-4-(trifluoromethoxy)phenyl]-1-fluorovinyl}-5-methyl-1H-pyrazol-1-yl)-methyl]-N-methylpyridine-2-amine]: inhibition was half-maximal at 3 nM (IC50).

Regarding `CNc1ccc(Cn2nc(/C(F)=C/c3ccc(SC(F)(F)F)cc3)cc2C)cn1` [Example 82, 5-({3-[(Z)-1-Fluoro-2-{4-[(trifluoromethyl)sulphanyl]phenyl}vinyl]-5-methyl-1H-pyrazol-1-yl}-methyl)-N-methylpyridine-2-amine], the IC50 is 1 nM.

With `CNc1ccc(Cn2nc(/C(F)=C/c3ccc(C(C)(C)C(F)(F)F)cc3)cc2C)cn1` [Example 83, 5-[(3-{(Z)-1-Fluoro-2-[4-(1,1,1-trifluoro-2-methylpropan-2-yl)phenyl]vinyl}-5-methyl-1H-pyrazol-1-yl)methyl]-N-methylpyridine-2-amine], half-maximal inhibition (IC50) was put at 0.4 nM.

On to `CNc1ccc(Cn2nc(/C(F)=C/c3ccc(C4(C(F)(F)F)CC4)cc3)cc2C)cn1` [Example 84, 5-({3-[(Z)-1-Fluoro-2-{4-[1-(trifluoromethyl)cyclopropyl]phenyl}vinyl]-5-methyl-1H-pyrazol-1-yl}methyl)-N-methylpyridine-2-amine], for which the IC50 was 2 nM.

`CNc1ccc(Cn2nc(/C(F)=C/c3ccc(C(F)(F)F)cc3)cc2C)cn1` [Example 85, 5-[(3-{(Z)-1-Fluoro-2-[4-(trifluoromethyl)phenyl]vinyl}-5-methyl-1H-pyrazol-1-yl)methyl]-N-methylpyridine-2-amine]: the IC50 was found to be 4 nM.

Regarding `CNc1ccc(Cn2nc(/C(F)=C/c3ccc([Si](C)(C)C)cc3)cc2C)cn1` [Example 86, 5-[(3-{(Z)-1-Fluoro-2-[4-(trimethylsilyl)phenyl]vinyl}-5-methyl-1H-pyrazol-1-yl)methyl]-N-methylpyridine-2-amine], the IC50 amounted to 0.3 nM.

`CNc1ccc(Cn2nc(/C(F)=C/c3ccc(C(C)(C)C)cc3)cc2C)cn1` [Example 87, 5-({3-[(Z)-2-(4-tert-Butylphenyl)-1-fluorovinyl]-5-methyl-1H-pyrazol-1-yl}methyl)-N-methylpyridine-2-amine] displayed an IC50 of 0.7 nM.

On to `CNc1ccc(Cn2nc(/C(F)=C/c3ccc(C4CCCCC4)cc3)cc2C)cn1` [Example 88, 5-({3-[(Z)-2-(4-Cyclohexylphenyl)-1-fluorovinyl]-5-methyl-1H-pyrazol-1-yl}methyl)-N-methylpyridine-2-amine], for which half-maximal inhibition (IC50) required 2 nM.

For the molecule `CNc1ccc(Cn2nc(/C(F)=C/c3ccc(C(C)C)cc3)cc2C)cn1` [Example 89, 5-({3-[(Z)-1-Fluoro-2-(4-isopropylphenyl)vinyl]-5-methyl-1H-pyrazol-1-yl}methyl)-N-methyl-pyridine-2-amine], the IC50 amounted to 2 nM.

As to `CNc1ccc(Cn2nc(/C(F)=C/c3ccc(CC(C)C)cc3)cc2C)cn1` [Example 90, 5-({3-[(Z)-1-Fluoro-2-(4-isobutylphenyl)vinyl]-5-methyl-1H-pyrazol-1-yl}methyl)-N-methyl-pyridine-2-amine], the IC50 was determined as 2 nM.

`CNc1ccc(Cn2nc(/C(F)=C/c3ccc(S(F)(F)(F)(F)F)cc3)cc2C)cn1` [Example 91, 5-[(3-{(Z)-1-Fluoro-2-[4-(pentafluoro-λ^6-sulphanyl)phenyl]vinyl}-5-methyl-1H-pyrazol-1-yl)-methyl]-N-methylpyridine-2-amine]: 0.3 nM corresponded to half-maximal inhibition (IC50).

Take `CCNC(=O)C(C)(C)Sc1ccc(/C=C(\F)c2cc(C)n(Cc3ccc(NC)nc3)n2)cc1` [Example 92, N-Ethyl-2-({4-[(Z)-2-fluoro-2-(5-methyl-1-{[6-(methylamino)pyridin-3-yl]methyl}-1H-pyrazol-3-yl)vinyl]phenyl}sulphanyl)-2-methylpropanamide]: the IC50 is 5 nM.

Molecule `CNc1ccc(Cn2nc(/C(F)=C/c3ccc(SC(C)(C)C(=O)N4CCCC4)cc3)cc2C)cn1` [Example 93, 2-({4-[(Z)-2-Fluoro-2-(5-methyl-1-{[6-(methylamino)pyridin-3-yl]methyl}-1H-pyrazol-3-yl)-vinyl]phenyl}sulphanyl)-2-methyl-1-(pyrrolidin-1-yl)propan-1-one] gave an IC50 of 5 nM.

With `CNc1ccc(Cn2nc(/C(F)=C/c3ccc(CN(C(C)C)C(C)C)cc3)cc2C)cn1` [Example 94, 5-({3-[(Z)-2-{4-[(Diisopropylamino)methyl]phenyl}-1-fluorovinyl]-5-methyl-1H-pyrazol-1-yl}-methyl)-N-methylpyridine-2-amine], the IC50 was 1 nM.

Molecule `CNc1ccc(Cn2nc(/C(F)=C/c3ccc(N4CC(C)OC(C)C4)nc3)cc2C)cn1` (stereo not shown) [Example 95, 5-[(3-{(Z)-2-[6-(2,6-Dimethylmorpholin-4-yl)pyridin-3-yl]-1-fluorovinyl}-5-methyl-1H-pyrazol-1-yl)methyl]-N-methylpyridine-2-amine] showed an IC50 of 0.6 nM.

As for `CCNc1ccc(Cn2nc(/C(F)=C/c3ccc(C(C)(C)C(F)(F)F)cc3)cc2C)cn1` [Example 96, N-Ethyl-5-[(3-{(Z)-1-fluoro-2-[4-(1,1,1-trifluoro-2-methylpropan-2-yl)phenyl]vinyl}-5-methyl-1H-pyrazol-1-yl)methyl]pyridine-2-amine], the IC50 was found to be 1 nM.

As for `CCNc1ccc(Cn2nc(/C(F)=C/c3ccc(C(O)(C(F)(F)F)C(F)(F)F)cc3)cc2C)cn1` [Example 97, 2-{4-[(Z)-2-(1-{[6-(Ethylamino)pyridin-3-yl]methyl}-5-methyl-1H-pyrazol-3-yl)-2-fluorovinyl]-phenyl}-1,1,1,3,3,3-hexafluoropropan-2-ol], the IC50 came out at 20 nM.

`Cc1cc(/C(F)=C/c2ccc(OC(F)(F)F)cc2)nn1Cc1ccnc(N2CCN(C3CC3)CC2)c1` [Example 102, 1-Cyclopropyl-4-{4-[(3-{(Z)-1-fluoro-2-[4-(trifluoromethoxy)phenyl]vinyl}-5-methyl-1H-pyrazol-1-yl)methyl]pyridin-2-yl}piperazine] displayed an IC50 of 0.5 nM.

Take `Cc1cc(/C(F)=C/c2ccc(OC(F)(F)F)c(Cl)c2)nn1Cc1ccnc(N2CCN(C3CC3)CC2)c1` [Example 103, 1-{4-[(3-{(Z)-2-[3-Chloro-4-(trifluoromethoxy)phenyl]-1-fluorovinyl}-5-methyl-1H-pyrazol-1-yl)-methyl]pyridin-2-yl}-4-cyclopropylpiperazine]: half-maximal inhibition (IC50) was put at 2.5 nM.

`Cc1cc(/C(F)=C/c2ccc(C(C)(C)C(F)(F)F)cc2)nn1Cc1ccnc(N2CCN(C3CC3)CC2)c1` [Example 104, 1-Cyclopropyl-4-{4-[(3-{(Z)-1-fluoro-2-[4-(1,1,1-trifluoro-2-methylpropan-2-yl)phenyl]vinyl}-5-methyl-1H-pyrazol-1-yl)methyl]pyridin-2-yl}piperazine] had an IC50 of 0.4 nM.

`Cc1cc(/C(F)=C/c2ccc(C3(C(F)(F)F)CC3)cc2)nn1Cc1ccnc(N2CCN(C3CC3)CC2)c1` [Example 105, 1-Cyclopropyl-4-[4-({3-[(Z)-1-fluoro-2-{4-[1-(trifluoromethyl)cyclopropyl]phenyl}vinyl]-5-methyl-1H-pyrazol-1-yl}methyl)pyridin-2-yl]piperazine] returned an IC50 of 0.5 nM.

For the molecule `Cc1cc(/C(F)=C/c2ccc([Si](C)(C)C)cc2)nn1Cc1ccnc(N2CCN(C3CC3)CC2)c1` [Example 106, 1-Cyclopropyl-4-{4-[(3-{(Z)-1-fluoro-2-[4-(trimethylsilyl)phenyl]vinyl}-5-methyl-1H-pyrazol-1-yl)methyl]pyridin-2-yl}piperazine], the midpoint of inhibition, the IC50, lay at 0.5 nM.

`Cc1cc(/C(F)=C/c2ccc(S(F)(F)(F)(F)F)cc2)nn1Cc1ccnc(N2CCN(C3CC3)CC2)c1` [Example 107, 1-Cyclopropyl-4-{4-[(3-{(Z)-1-fluoro-2-[4-(pentafluoro-λ^6-sulphanyl)phenyl]vinyl}-5-methyl-1H-pyrazol-1-yl)methyl]pyridin-2-yl}piperazine]: the IC50 stood at 0.3 nM.

What is called IC50 is the concentration at which inhibition is half-maximal. Read a low IC50 as greater potency in that assay.
